How the values were obtained:
UCD52 TNBC PDX tumors = assay: PD-L1 IHC of KMTR2 treated UCD52 TNBC PDX tumors; format: in vivo, mouse; details: KMTR2 50 μg, 4 doses; NSG mice
DR5 = DR5 knockout (DR5-KO) versus DR5-WT TNBC cells: viability, PD-L1, S5a, ubiquitin; format: cell-based, human; details: for overall ubiquitin signal in lysates: DR5 sensitive versus DR5-KO cells (FIG. 2P)
Experimental: In Vitro Cell Viability Assays. Cell viability following Apo2L, lexatumumab, KMTR2, tigatuzumab, AMG-655, MD5-1, avelu-MD5, etc. treatments as indicated in the Figures either alone in combination with inhibitors (ROCK1, ERK, caspase inhibitors, etc.) or in combination with an anti-Fc reagent (For tigatuzumab, AMG-655, MD5-1, etc.) were determined using the ALAMARBLUE™ cell viability assays and MTT cell proliferation assays as per the manufacturer's protocols (ThermoFisher Scientific). Briefly, cells were treated with increasing concentration of various antibodies as indicated along with relevant positive and negative control antibodies for 6 hours, 24 hours, or 48 hours as indicated. For each cell killing assay the figures show the representative profiles from n=2-4 with different cultured confluency. Whenever used for immunoblotting, following antibodies treatment caspase-3 processing in tumor cells was monitored using selective antibodies that recognize cleaved human caspase-3 or total caspase-3 (Catalog Nos. 9661 and 9668; Cell Signaling Technology, Danvers, Massachusetts, United States of America). TRAIL-R2 receptor in oligomerization was determined using immunoblotting assays (Cell Signaling Technology Rabbit mAb, Catalog No. 8074). Cell viability was additionally examined by flow cytometry based apoptotic detection methods using 7-aminoactinomycin D (7-ADD) exclusion from live cells.
Western Blotting. Cells were cultured overnight in tissue culture-treated 6-well plates prior to treatment. After antibody treatment for 48 hours or another indicated time, cells were rinsed with PBS and then lysed with RIPA buffer supplemented with protease inhibitor cocktail (ThermoFisher Scientific). Centrifugation at 14000 rpm for 30 minutes cleared lysates and protein was quantified by PIERCE™ BCA Protein Assay Kit (ThermoFisher Scientific). Western blotting was performed using the Bio-Rad SDS-PAGE Gel system. Briefly, 30 μg of protein was resolved on 10% Bis-Tris gels and then transferred onto PVDF membrane. Membranes were blocked for one hour at room temperature in TBS+0.1% Tween (TBST) with 5% non-fat dry milk. Membranes were probed overnight at 4° C. with primary antibodies. Membranes were washed three times in TBST and then incubated with anti-rabbit or anti-mouse secondary antibodies (1/10,000 dilution, coupled to peroxidase) for 1 hour at room temperature. Membranes were then washed three times with TBST and immunocomplexes were detected with SUPERSIGNAL™ West Pico Chemiluminescent Substrate (ThermoFisher Scientific). […]
Flow cytometry. The cell surface expression of PD-L1, CD47, huDR5, muDR5, CD8, CD4, CD25 etc. was analyzed by flow cytometry. […] The data was analyzed by FCS Express (De Novo Software, Los Angeles, California, United States of America) and FlowJo. […]

PD-L1 = assay: Western blotting / flow cytometry of PD-L1 and regulators in tumor cells; format: cell-based, human; details: ovarian and TNBC tumor cells
Experimental: Western Blotting. Cells were cultured overnight in tissue culture-treated 6-well plates prior to treatment. After antibody treatment for 48 hours or another indicated time, cells were rinsed with PBS and then lysed with RIPA buffer supplemented with protease inhibitor cocktail (ThermoFisher Scientific). Centrifugation at 14000 rpm for 30 minutes cleared lysates and protein was quantified by PIERCE™ BCA Protein Assay Kit (ThermoFisher Scientific). Western blotting was performed using the Bio-Rad SDS-PAGE Gel system. Briefly, 30 μg of protein was resolved on 10% Bis-Tris gels and then transferred onto PVDF membrane. Membranes were blocked for one hour at room temperature in TBS+0.1% Tween (TBST) with 5% non-fat dry milk. Membranes were probed overnight at 4° C. with primary antibodies. Membranes were washed three times in TBST and then incubated with anti-rabbit or anti-mouse secondary antibodies (1/10,000 dilution, coupled to peroxidase) for 1 hour at room temperature. Membranes were then washed three times with TBST and immunocomplexes were detected with SUPERSIGNAL™ West Pico Chemiluminescent Substrate (ThermoFisher Scientific). Images were taken using a Bio-Rad Gel Doc Imager system.
(§1) Flow cytometry. The cell surface expression of PD-L1, CD47, huDR5, muDR5, CD8, CD4, CD25 etc. was analyzed by flow cytometry. Overnight grown tumors were trypsinized and suspended in FACS buffer (PBS containing 2% FBS). Single cell suspensions were then incubated with primary DR4/DR5 antibodies for 1 hour at 4° C. with gentle mixing. Following wash with FACS buffer, the cells were then incubated with fluorescently labeled anti-Rabbit antibody for 1 hour. Cells were washed and flow cytometry was performed using a BD FACSCALIBUR™ flow cytometer. The data was analyzed by FCS Express (De Novo Software, Los Angeles, California, United States of America) and FlowJo.

[1] = system: DR5-KO (MDA-MB-231) cells; assay: ApoEV isolation and PD-L1 transfer to DR5-KO cells; format: cell-based, human; details: ApoEVs from treated DR5-WT cells
Experimental: FIG. 12. TNF-α stabilized PD-L1 is not shuttled to ApoEVs. ApoEVs were isolated from DR5-WT MDA-MB-436 and OVCAR-3 cells after treatment with IgG1, TNF-α and lexatumumab. Isolated ApoEVs were incubated on to DR5-KO (MDA-MB-231) cells. After 24 hours surface PD-L1 of DR5-KO cells was analyze by flow cytometry. Top panel show secondary antibody control, IgG1 treatment control and basal level PD-L1 levels on MDA-MB-231 DR5 KO cells.
ApoEV isolation. 4×10^6 cells were seeded onto 3×150 mm dishes in a total volume of 45 ml of DMEM supplemented with 10% exosome-free FBS and grown for 12 hours. Media of each plate was changed with serum-free medium and incubate the cells at 37° C. for 6-12 hours, with or without various antibody treatments. For all ApoEV studies, the tissue culture media was spun at 8000×g for 15 minutes. The pellet was discarded and the supernatants (SN) were passed through 0.22 um filter. ApoEVs were isolated by the ultracentrifugation method. Collected tissue culture media was spun at 5,000×g for 10 minutes to remove contaminating cellular particles, and the resulting supernatant was spun at 80,000×g for 4 hours at 4° C. to pellet ApoEVs. ApoEV pellets were resuspended in 500 μl of serum-free medium and were used for either cellular treatments, dot blots assays and immunoblotting assays.

[2] = system: chi-G4S-DR5 stable 4T1 tumors; assay: Surface PD-L1 flow cytometry of cells recovered from Chi-G4S-DR5 stable 4T1 tumors; format: in vivo, mouse; details: 4 doses; flow cytometry of recovered tumors (FIGS. 5G, 23)
Description: Mechanical dissociation of tumors to obtain single-cell suspensions. Viable single cells from tumor tissues were isolated as described in Leelatian et al, 2017. Briefly, after indicated antibody treatments (4-6 doses) mice were euthanized and tumors were harvested using sterile scissors and forceps. After excision of tumor, they were minced into small pieces in sterile RPMI-1640 media using two single-edged razor blades. Small tumor pieces were passed through a 70 µm cell strainer in sterile RPMI-1640 media. A rubber plunger and syringe were used to mesh the dissociated cells through the cell strainer and media containing dissociated cells was collected onto a sterile labeled conical tube. Dissociated tumor cells were subjected to flow cytometry (FACS) analysis for PD-L1, DR5, N-cadherin, FOLR1, CD47 etc. surface expression as described under flow cytometry protocol.
PD-L1 surface expression analysis of tumor derived cells. The cell surface expression of PD-L1 from tumor-derived cell was analyzed by flow cytometry. Isolated cells were suspended in FACS buffer (PBS containing 1% FBS). […] The data was analyzed by FCS Express (De Novo Software) and FlowJo software.
Chimeric DR5 cloning and Human DR5 agonist testing studies in Balb/c animals. […] Tumors were monitored as described herein above. […]

MDA-MB-436 cells = assay: Flow cytometry of surface PD-L1 on tumor cells treated with DR5 agonist antibodies (FIG. 20B); format: cell-based, human
Experimental: FIGS. 20A-20C. (FIG. 20A) 3 biological replicates of total PD-L1 and GAPDH from triple negative breast cancer cell (MDAMB-436) and ovarian cell (OVCAR-3) lysates treated with lexatumumab for 6 hours. (FIG. 20B) Raw mean fluorescent intensity (MFI) and % positive PD-L1 counts from the cells treated with indicated DR5 agonist antibodies. MFI values are shown on the top of solid color bars. There are multiple instances (shown on the top) where despite having lower % positive PD-L1 population, MFI values were higher after indicated DR5 agonist treatments. As an example, in MDA-MB-436 cells treated with tigatuzumab and lexatumumab, lexatumumab treated cells had higher % positive PD-L1 population (9.32 vs 11.97), however MFI was higher in tigatuzumab treated population (107.54 vs 45.87). (FIG. 20C) KMTR2 treated (50 μg, 4 doses) UCD52 TNBC PDX tumors were stained for PD-L1 using immunohistochemistry (IHC). 3 additional representative images are shown. Also see FIG. 1L.
as §1
PD-L1 surface expression analysis of tumor derived cells. The cell surface expression of PD-L1 from tumor-derived cell was analyzed by flow cytometry. Isolated cells were suspended in FACS buffer (PBS containing 1% FBS). The single cell suspension was then incubated with primary PD-L1 antibodies (1:400 dilution) for 1 hour at 4° C. with gentle mixing. […] Following 3 times wash with FACS buffer, the cells were then incubated with fluorescently labeled (alexa 488) anti-Rabbit secondary antibody for 1 hour. Cells were then washed 3-4 times with FACS buffer and flow cytometry was performed using BD FACSCALIBUR™. The data was analyzed by FCS Express (De Novo Software) and FlowJo software.

DR5, sequence (O14763 56-184 limits assumed): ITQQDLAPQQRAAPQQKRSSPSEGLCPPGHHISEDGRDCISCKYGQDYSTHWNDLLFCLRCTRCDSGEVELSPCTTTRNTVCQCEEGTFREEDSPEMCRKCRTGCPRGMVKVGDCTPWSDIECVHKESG

**Q.** What does the source list for “KMTR2: Monospecific Antibody, Human DR5 activator; VL and VH SEQ ID NOs: 7 and 8”?
**A.** PD-L1 stabilization by IHC (UCD52 TNBC PDX tumors): PD-L1 stabilization was also confirmed; overall ubiquitin signal in lysates (DR5): increased only in DR5 sensitive cell lysates

**Q.** What does the source list for TNF-α?
**A.** PD-L1 and CSN5 stabilization in lysates (PD-L1): stabilized both PD-L1 and CSN5; PD-L1 in ApoEVs / shuttling of PD-L1 via ApoEVs [1]: did not shuttle significant amount of PD-L1 via ApoEVs; PD-L1 stabilization / surface mobilization in DR5-KO lines (DR5; DR5-KO compared to DR5-WT cells): remained unchanged; S5a/PSMD4 levels (DR5; MDA-MB-436 WT and DR5-KO cells): stabilized PD-L1 without affecting S5a levels

**Q.** How did the “PD-L1 on cell surface of tumor cells” value [2] turn out when “lexatumumab: Monospecific Antibody, Human DR5 activator; VL and VH SEQ ID NOs: 1 and 2” was run?
**A.** higher overall PD-L1 on cell surface

**Q.** And the “PD-L1 mean fluorescent intensity (MFI)” value (MDA-MB-436 cells; MDA-MB-436 cells treated with DR5 agonist antibody (FIG. 20B))?
**A.** 45.87

**Q.** And the “% positive PD-L1 population” value (MDA-MB-436 cells; MDA-MB-436 cells treated with DR5 agonist antibody, raw flow cytometry counts (FIG. 20B))?
**A.** 11.97%

**Q.** And the “overall ubiquitin signal in lysates” value (DR5)?
**A.** increased only in DR5 sensitive cell lysates
